Assay results from patent US20260250290A1 (BRISTOL-MYERS SQUIBB COMPANY, priority 2023, published 2026).
Structures can show the parent of a compound that is named as a salt.

Target: T1, SGK1 (Homo sapiens, UniProt O00141)
T1 sequence (O00141 1-431): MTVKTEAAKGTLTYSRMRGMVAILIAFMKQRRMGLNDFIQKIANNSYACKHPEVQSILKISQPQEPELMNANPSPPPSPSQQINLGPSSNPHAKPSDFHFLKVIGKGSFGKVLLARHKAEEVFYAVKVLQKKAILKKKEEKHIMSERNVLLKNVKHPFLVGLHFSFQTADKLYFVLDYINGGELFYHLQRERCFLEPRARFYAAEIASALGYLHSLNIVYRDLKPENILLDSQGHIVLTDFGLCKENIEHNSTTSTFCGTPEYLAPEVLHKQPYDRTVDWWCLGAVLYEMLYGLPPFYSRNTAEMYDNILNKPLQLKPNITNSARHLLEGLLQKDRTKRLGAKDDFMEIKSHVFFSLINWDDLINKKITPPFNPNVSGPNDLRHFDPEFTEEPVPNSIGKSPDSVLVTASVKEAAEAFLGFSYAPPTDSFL
Assay: SGK1 inhibition Assay B (Echo mass spectrometry of phosphorylated peptide product)
Type: biochemical
Details: 60 min at room temperature

IC50 [nM]	Compound
2	Cc1nc(O[C@@H]2CC[C@H]3[C@H](CCN3C)C2)c(C(=O)N[C@@H]2CCCN(c3cc(-c4ccc(C(N)=O)c(F)c4)n4ncnc(N)c34)C2)s1 [Example 918, 4-{[(3aR,5R,7aS)-1-methyl-octahydro-1H-indol-5-yl]oxy}-N-[(3R)-1-[4-amino-7-(4-carbamoyl-3-fluorophenyl)pyrrolo[2,1-f][1,2,4]triazin-5-yl]piperidin-3-yl]-2-methyl-1,3-thiazole-5-carboxamide]
0.9	Cc1nc(OC2CCC(N3CC(O)C3)CC2)c(C(=O)N[C@@H]2CCCN(c3cc(-c4ccc(C(N)=O)c(F)c4)n4ncnc(N)c34)C2)s1 (stereo partly drawn) [Example 1039, (R)—N-(1-(4-amino-7-(4-carbamoyl-3-fluorophenyl)pyrrolo[2,1-f][1,2,4]triazin-5-yl)piperidin-3-yl)-4-((4-(3-hydroxyazetidin-1-yl)cyclohexyl)oxy)-2-methylthiazole-5-carboxamide]
3	COC(=O)N1CC=C(c2cc(N3CCC[C@@H](NC(=O)c4sc(C)nc4OC4CCNCC4)C3)c3c(N)ncnn23)C1 [Example 359, Methyl (R)-3-(4-amino-5-(3-(2-methyl-4-(piperidin-4-yloxy)thiazole-5-carboxamido)piperidin-1-yl)pyrrolo[2,1-f][1,2,4]triazin-7-yl)-2.5-dihydro-1H-pyrrole-1-carboxylate]
3	CC(=O)N1CC=C(c2cc(N3CCC[C@@H](NC(=O)c4sc(Cl)cc4OCC45CCCN4CCC5)C3)c3c(N)ncnn23)C1 [Example 917, N-[(3R)-1-[7-(1-acetyl-2,5-dihydro-1H-pyrrol-3-yl)-4-aminopyrrolo[2,1-f][1,2,4]triazin-5-yl]piperidin-3-yl]-5-chloro-3-[(hexahydro-1H-pyrrolizin-7a-yl)methoxy]thiophene-2-carboxamide]
2.1	CC[C@H](CO)N[C@H]1CC[C@@H](Oc2nc(C)sc2C(=O)N[C@@H]2CCCN(c3cc(C4=C(C)C(=O)OC4)n4ncnc(N)c34)C2)CC1 [Example 1010, N-((R)-1-(4-amino-7-(4-methyl-5-oxo-2,5~dihydrofuran~3-yl)pyrrolo[2,1-f][1,2,4]triazin-5-y1)piperidin-3-y1)-4-((4-(((R)-1-hydroxybutan-2-yl)amino)cyclohexyl)oxy)-2-methylthiazole-5-carboxamide]
1.1	CC1=C(c2cc(N3CCC[C@@H](NC(=O)c4sc(C)nc4O[C@H]4CC[C@@H](NC5CCOC5(C)C)CC4)C3)c3c(N)ncnn23)COC1=O (stereo partly drawn) [Example 1012, N—((R)-1-(4-amino-7-(4-methyl-5-oxo-2,5-dihydrofuran-3-yl)pyrrolo[2,1-f][1,2,4]triazin-5-yl)piperidin-3-yl)-4-(((1S,4S)-4-((2,2-dimethyltetrahydrofuran-3-yl)amino)cyclohexyl)oxy)-2-methylthiazole-5-carboxamide]
6	Cc1cc(O[C@@H]2C[C@H]3CC[C@@H](C2)N3C)c(C(=O)N[C@@H]2CCCN(c3cc(-c4cnn(C(F)F)c4)n4ncnc(N)c34)C2)s1 [Example 848, N-((R)-1-(4-amino-7-(1-(difluoromethyl)-1H-pyrazol-4-yl)pyrrolo[2,1-f][1,2,4]triazin-5-yl)piperidin-3-yl)-5-methyl-3-(((1R,3s,5S)-8-methyl-8-azabicyclo[3.2.1]octan-3-yl)oxy)thiophene-2-carboxamide, TFA salt]
7	CN1[C@@H]2CC[C@H]1C[C@H](Oc1cc(Cl)sc1C(=O)N[C@@H]1CCCN(c3cc(-c4ccnn4C)n4ncnc(N)c34)C1)C2 [Example 975, N—((R)-1-(4-amino-7-(1-methyl-1H-pyrazol-5-yl)pyrrolo[2,1-f][1,2,4]triazin-5-yl)piperidin-3-yl)-5-chloro-3-(((1R,3s,5S)-8-methyl-8-azabicyclo[3.2.1]octan-3-yl)oxy)thiophene-2-carboxamide]
20	CC(C)N1CC2(CN(c3cccc(C(=O)N[C@@H]4CCCN(c5cc(-c6ccc(S(C)(=O)=O)nc6)n6ncnc(N)c56)C4)n3)C2)C1 [Example 834, (R)-N-(1-(4-amino-7-(6-(methylsulfonyl)pyridin-3-yl)pyrrolo[2,1-f][1,2,4]triazin-5-yl)piperidin-3-yl)-6-(6-isopropyl-2,6-diazaspiro[3.3]heptan-2-yl)picolinamide]
1.7	COc1nccc(-c2cc(N3CCC[C@@H](NC(=O)c4sc(C)nc4O[C@H]4CC[C@@H](N(C)C)CC4)C3)c3c(N)ncnn23)n1 [Example 1028, N—((R)-1-(4-amino-7-(2-methoxypyrimidin-4-yl)pyrrolo[2,1-f][1,2,4]triazin-5-yl)piperidin-3-yl)-4-(((1S,4S)-4-(dimethylamino)cyclohexyl)oxy)-2-methylthiazole-5-carboxamide]
8	Cc1nc(O[C@@H]2C[C@H]3CC[C@@H](C2)N3)c(C(=O)N[C@@H]2CCCN(c3cc(-c4ccc5c(c4)OCCNC5=O)n4ncnc(N)c34)C2)s1 [Example 966, 4-(((1R,3s,5S)-8-azabicyclo [3.2.1]octan-3-yl)oxy)-N—((R)-1-(4-amino-7-(5-oxo-2,3,4,5-tetrahydrobenzo[f][1,4]oxazepin-8-yl)pyrrolo[2,1-f][1,2,4]triazin-5-yl)piperidin-3-yl)-2-methylthiazole-5-carboxamide]
1	CCN1CC[C@@H](Oc2cc(C(F)F)sc2C(=O)N[C@@H]2CCCN(c3cc(-c4ccc(C(N)=O)c(F)c4)n4ncnc(N)c34)C2)CC1(C)C [Example 947, N—((R)-1-(4-amino-7-(4-carbamoyl-3-fluorophenyl)pyrrolo[2,1-f][1,2,4]triazin-5-yl)piperidin-3-yl)-5-(difluoromethyl)-3-(((R)-1-ethyl-2,2-dimethylpiperidin-4-yl)oxy)thiophene-2-carboxamide]
7	CC(=O)N1CC=C(c2cc(N3CCC[C@@H](NC(=O)c4sc(Cl)cc4OC4CC5CC(C4)N(C)C5)C3)c3c(N)ncnn23)C1 (single isomer, unassigned) [Example 952]
1	CC(C)N1CC2(CC(Oc3cc(Cl)sc3C(=O)N[C@@H]3CCCN(c4cc(-c5ccnc(C#N)c5)n5ncnc(N)c45)C3)C2)C1 [Example 995]
80	CC(=O)c1ccc(-c2cc(N3CCC[C@@H](NC(=O)c4cccc(N5CCN(C)CC5)n4)C3)c3c(N)ncnn23)cn1 [Example 809, (R)-N-(1-(7-(6-acetylpyridin-3-yl)-4-aminopyrrolo[2,1-f][1,2,4]triazin-5-yl)piperidin-3-yl)-6-(4-methylpiperazin-1-yl)picolinamide]
1.9	CCC(CO)NC1CCC(Oc2nc(C)sc2C(=O)NC2CCCN(c3cc(C4=C(C)C(=O)OC4)n4ncnc(N)c34)C2)CC1 [Example 1009, N-((R)-1-(4-amino-7-(4-methyl-5-oxo-2,5-dihydrofuran-3-yl)pyrrolo[2,1-f][1,2,4]triazin-5-y1)piperidin-3-y1)-4-((4-(((S)-1-hydroxybutan-2-yl)amino)cyclohexyl)oxy)-2-methylthiazole-5-carboxamide]
0.5	CCC1=C(c2cc(N3CCC[C@@H](NC(=O)c4sc(C)nc4O[C@H]4CC[C@@H](NC(C)CO)CC4)C3)c3c(N)ncnn23)COC1=O (single isomer, unassigned) [Example 1019]
2	CC(=O)N1CC=C(c2cc(N3CCC[C@@H](NC(=O)c4sc(C#N)cc4O[C@@H]4C[C@H]5CC[C@@H](C4)N5C)C3)c3c(N)ncnn23)C1 [Example 920, N—((R)-1-(7-(1-acetyl-2,5-dihydro-1H-pyrrol-3-yl)-4-aminopyrrolo[2,1-f][1,2,4]triazin-5-yl)piperidin-3-yl)-5-cyano-3-(((1R,3s,5S)-8-methyl-8-azabicyclo[3.2.1]octan-3-yl)oxy)thiophene-2-carboxamide]
56	CC(=O)N1CC=C(c2cc(N3CCC[C@@H](NC(=O)[C@]45CCC[C@H]4C5)C3)c3c(N)ncnn23)C1 (mixture of isomers) [Example 916, (cis)-N-[(3R)-1-[7-(1-acetyl-2,5-dihydro-1H-pyrrol-3-yl)-4-aminopyrrolo[2,1-f][1,2,4]triazin-5-yl]piperidin-3-yl]bicyclo[3.1.0]hexane-1-carboxamide]
4	CC(C)S(=O)(=O)c1ccc(-c2cc(N3CCC[C@@H](NC(=O)c4sc(Cl)cc4O[C@@H]4C[C@H]5CC[C@@H](C4)N5C)C3)c3c(N)ncnn23)cn1 [Example 969, N-[(3R)-1-{4-amino-7-[6-(propane-2-sulfonyl)pyridin-3-yl]pyrrolo[2,1-f][1,2,4]triazin-5-yl}piperidin-3-yl]-5-chloro-3-{[(R,3R,5S)-8-methyl-8-azabicyclo[3.2.1]octan-3-yl]oxy}thiophene-2-carboxamide]

Compound	IC50 [nM]
CC(C)N1CC2(CN(c3cccc(C(=O)N[C@@H]4CCCN(c5cc(-c6ccc(-n7cnnn7)c(CO)c6)n6ncnc(N)c56)C4)n3)C2)C1 [Example 824, (R)-N-(1-(4-amino-7-(3-(hydroxymethyl)-4-(1H-tetrazol-1-yl)phenyl)pyrrolo[2,1-f][1,2,4]triazin-5-yl)piperidin-3-yl)-6-(6-isopropyl-2,6-diazaspiro[3.3]beptan-2-yl)picolinamide]	10
COc1cc(-c2cc(N3CCC[C@@H](NC(=O)c4ccnc(N5CCN(C)CC5)n4)C3)c3c(N)ncnn23)ccc1-n1cnnn1 [Example 855, (R)-N-(1-(4-amino-7-(3-methoxy-4-(1H-tetrazol-1-yl)phenyl)pyrrolo[2,1-f][1,2,4]triazin-5-yl)piperidin-3-yl)-2-(4-methylpiperazin-1-yl)pyrimidine-4-carboxamide]	14
